Assay results from patent US20050080076A1 (Xanodyne Pharmacal, Inc., priority 2003, published 2005).

How the values were obtained:
Dopamine D2 = Dopamine D2 (Homo sapiens, UniProt P14416); experiment: Receptor binding, Dopamine D2
Method: (§1) Receptor-ligand binding studies were performed as known to one skilled in the art. Compounds evaluated were LMP, the parent compound, the NDM LMP metabolite of LMP, and the sulfoxide metabolite of LMP. These studies verified receptor binding and affinity by the parent compound, as well as identified other potential receptors for the parent compound and its metabolites, and identified and verified receptors and receptor affinity for the metabolites.
(§2) Dopamine receptor affinity included binding to D1, D2, D3, D4, and D5 receptors. Serotonin receptor affinity included binding to 5-HT1A, 5-HT2A, 5-HT2B, 5-HT2, 5-HT5A, 5-HT6, and 5-HT7 receptors. Alpha adrenergic receptor affinity included binding to α1A, α1B, α1C, α2A, α2B, and α2C receptors. Muscarinic receptor affinity included binding to M1, M2, M3, M4, and M5 receptors. Binding to the histamine H1 receptor, the calcium ion channel receptor, and the sodium ion channel receptor were also evaluated. In each of the tables, the following abbreviations are used: LMP indicates the parent compound levomepromazine. NDM LMP indicates the N-desmethyl (N-desmethyl) metabolite. Sulfoxide indicates the sulfoxide metabolite. […] Ki (the inhibition constants of binding) indicate binding affinity.

Muscarinic M1 = biological target: T1, Muscarinic M1 (Homo sapiens, UniProt P11229); experiment: Receptor binding, Muscarinic M1
T1 sequence (P11229 1-460): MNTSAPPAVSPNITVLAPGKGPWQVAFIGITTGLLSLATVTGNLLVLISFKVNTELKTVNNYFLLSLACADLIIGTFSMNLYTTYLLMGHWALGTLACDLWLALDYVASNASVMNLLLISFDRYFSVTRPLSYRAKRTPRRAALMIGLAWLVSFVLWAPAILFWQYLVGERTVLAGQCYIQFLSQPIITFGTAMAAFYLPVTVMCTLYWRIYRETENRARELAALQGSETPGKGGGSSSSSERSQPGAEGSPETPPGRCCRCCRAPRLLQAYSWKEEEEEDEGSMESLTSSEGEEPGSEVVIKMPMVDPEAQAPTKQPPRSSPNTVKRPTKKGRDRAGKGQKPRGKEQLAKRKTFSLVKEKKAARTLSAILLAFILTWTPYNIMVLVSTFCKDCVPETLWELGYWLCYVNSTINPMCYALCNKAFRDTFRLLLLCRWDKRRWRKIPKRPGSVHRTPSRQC
Method: as §1, §2

Serotonin 5-HT2B = Serotonin 5-HT2B (Homo sapiens, UniProt P41595); experiment: Receptor binding, Serotonin 5-HT2B
Serotonin 5-HT2B, sequence (P41595 whole entry): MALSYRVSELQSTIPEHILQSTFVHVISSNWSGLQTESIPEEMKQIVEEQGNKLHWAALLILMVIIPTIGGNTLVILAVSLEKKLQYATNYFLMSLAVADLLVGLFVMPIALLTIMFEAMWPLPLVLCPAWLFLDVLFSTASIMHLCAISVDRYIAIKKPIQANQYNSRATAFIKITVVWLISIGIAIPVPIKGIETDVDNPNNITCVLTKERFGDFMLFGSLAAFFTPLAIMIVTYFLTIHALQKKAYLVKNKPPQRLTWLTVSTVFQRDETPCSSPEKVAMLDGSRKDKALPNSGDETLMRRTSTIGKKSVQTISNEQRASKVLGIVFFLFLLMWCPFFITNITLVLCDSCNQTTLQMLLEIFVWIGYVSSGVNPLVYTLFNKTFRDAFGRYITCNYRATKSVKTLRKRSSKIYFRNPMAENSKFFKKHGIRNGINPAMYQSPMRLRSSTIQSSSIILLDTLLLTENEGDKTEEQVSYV
Method: as §1, §2

Adrenergic α2B = biological target: T2, Adrenergic α2B (Homo sapiens, UniProt P18089); experiment: Receptor binding, Adrenergic α2B
T2 sequence (P18089 1-450): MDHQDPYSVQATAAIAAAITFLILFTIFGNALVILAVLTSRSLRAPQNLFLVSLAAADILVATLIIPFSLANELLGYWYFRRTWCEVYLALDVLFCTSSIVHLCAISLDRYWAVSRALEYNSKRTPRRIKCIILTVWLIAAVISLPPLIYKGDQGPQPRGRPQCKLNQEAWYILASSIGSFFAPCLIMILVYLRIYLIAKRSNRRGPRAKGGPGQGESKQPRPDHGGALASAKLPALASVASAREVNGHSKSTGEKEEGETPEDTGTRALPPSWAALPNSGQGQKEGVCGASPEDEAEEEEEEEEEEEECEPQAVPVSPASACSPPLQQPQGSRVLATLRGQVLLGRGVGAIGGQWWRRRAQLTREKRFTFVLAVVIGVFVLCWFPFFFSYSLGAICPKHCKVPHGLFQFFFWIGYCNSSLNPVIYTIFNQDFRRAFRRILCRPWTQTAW
Method: as §1, §2

Muscarinic M2 = biological target: T3, Muscarinic M2 (Homo sapiens, UniProt P08172); experiment: Receptor binding, Muscarinic M2
T3 sequence (P08172 1-466): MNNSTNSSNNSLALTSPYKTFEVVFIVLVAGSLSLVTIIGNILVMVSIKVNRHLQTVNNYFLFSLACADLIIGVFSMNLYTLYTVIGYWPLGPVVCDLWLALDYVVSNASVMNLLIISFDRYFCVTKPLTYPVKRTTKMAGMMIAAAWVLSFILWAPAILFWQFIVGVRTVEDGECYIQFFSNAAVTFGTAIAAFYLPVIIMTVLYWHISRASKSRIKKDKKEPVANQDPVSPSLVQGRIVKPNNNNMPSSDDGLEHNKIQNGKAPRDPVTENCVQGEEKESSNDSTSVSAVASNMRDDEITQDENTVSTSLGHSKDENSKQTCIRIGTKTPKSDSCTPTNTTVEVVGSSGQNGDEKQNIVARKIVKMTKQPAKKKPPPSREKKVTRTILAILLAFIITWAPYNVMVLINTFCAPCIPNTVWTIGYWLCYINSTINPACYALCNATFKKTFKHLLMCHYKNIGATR
Method: as §1, §2

Muscarinic M5 = biological target: T4, Muscarinic M5 (Homo sapiens, UniProt P08912); experiment: Receptor binding, Muscarinic M5
T4 sequence (P08912 1-532): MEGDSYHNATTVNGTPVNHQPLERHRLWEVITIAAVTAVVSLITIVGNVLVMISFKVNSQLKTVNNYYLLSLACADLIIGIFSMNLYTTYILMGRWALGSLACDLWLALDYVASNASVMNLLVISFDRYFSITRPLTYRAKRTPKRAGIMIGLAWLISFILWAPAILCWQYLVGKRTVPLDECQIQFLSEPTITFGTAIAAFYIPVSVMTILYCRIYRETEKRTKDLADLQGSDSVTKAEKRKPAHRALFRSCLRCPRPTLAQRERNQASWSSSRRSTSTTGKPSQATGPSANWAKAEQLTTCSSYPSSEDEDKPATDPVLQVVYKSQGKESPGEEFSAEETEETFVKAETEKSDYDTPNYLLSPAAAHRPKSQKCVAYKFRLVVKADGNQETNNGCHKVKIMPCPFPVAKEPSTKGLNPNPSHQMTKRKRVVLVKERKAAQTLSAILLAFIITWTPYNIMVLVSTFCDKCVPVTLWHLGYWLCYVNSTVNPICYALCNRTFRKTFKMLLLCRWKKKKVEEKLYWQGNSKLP
Method: as §1, §2

Serotonin 5-HT6 = Serotonin 5-HT6 (Homo sapiens, UniProt P50406); experiment: Receptor binding, Serotonin 5-HT6
Serotonin 5-HT6, sequence (P50406 whole entry): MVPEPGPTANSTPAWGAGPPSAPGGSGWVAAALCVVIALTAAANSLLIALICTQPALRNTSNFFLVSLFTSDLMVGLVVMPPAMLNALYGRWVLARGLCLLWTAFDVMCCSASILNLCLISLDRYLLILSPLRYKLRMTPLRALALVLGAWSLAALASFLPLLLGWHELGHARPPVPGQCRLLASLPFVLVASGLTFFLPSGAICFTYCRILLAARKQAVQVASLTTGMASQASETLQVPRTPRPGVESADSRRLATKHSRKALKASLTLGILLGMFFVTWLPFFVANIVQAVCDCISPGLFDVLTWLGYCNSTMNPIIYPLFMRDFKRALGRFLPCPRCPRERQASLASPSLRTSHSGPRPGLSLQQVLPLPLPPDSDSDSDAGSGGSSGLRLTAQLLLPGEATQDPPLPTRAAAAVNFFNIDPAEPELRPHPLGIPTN
Method: as §1, §2

Serotonin 5-HT5A = Serotonin 5-HT5A (Homo sapiens, UniProt P47898); experiment: Receptor binding, Serotonin 5-HT5A
Serotonin 5-HT5A, sequence (P47898 whole entry): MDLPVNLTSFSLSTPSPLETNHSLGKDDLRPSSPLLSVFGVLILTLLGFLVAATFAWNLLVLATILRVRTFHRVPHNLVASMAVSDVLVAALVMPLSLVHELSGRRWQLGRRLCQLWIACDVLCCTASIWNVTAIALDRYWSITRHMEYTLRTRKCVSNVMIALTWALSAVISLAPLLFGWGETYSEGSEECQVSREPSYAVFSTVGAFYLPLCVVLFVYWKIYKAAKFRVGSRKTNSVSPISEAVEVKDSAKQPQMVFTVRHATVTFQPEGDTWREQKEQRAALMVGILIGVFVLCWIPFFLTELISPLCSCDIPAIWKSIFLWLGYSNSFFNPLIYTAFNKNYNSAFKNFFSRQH
Method: as §1, §2

Histamine H1 = Histamine H1 (Homo sapiens, UniProt P35367); experiment: Receptor binding, Histamine H1; settings: for Ki: Histamine H1; for Relative Affinity: Histamine
Histamine H1, sequence (P35367 whole entry): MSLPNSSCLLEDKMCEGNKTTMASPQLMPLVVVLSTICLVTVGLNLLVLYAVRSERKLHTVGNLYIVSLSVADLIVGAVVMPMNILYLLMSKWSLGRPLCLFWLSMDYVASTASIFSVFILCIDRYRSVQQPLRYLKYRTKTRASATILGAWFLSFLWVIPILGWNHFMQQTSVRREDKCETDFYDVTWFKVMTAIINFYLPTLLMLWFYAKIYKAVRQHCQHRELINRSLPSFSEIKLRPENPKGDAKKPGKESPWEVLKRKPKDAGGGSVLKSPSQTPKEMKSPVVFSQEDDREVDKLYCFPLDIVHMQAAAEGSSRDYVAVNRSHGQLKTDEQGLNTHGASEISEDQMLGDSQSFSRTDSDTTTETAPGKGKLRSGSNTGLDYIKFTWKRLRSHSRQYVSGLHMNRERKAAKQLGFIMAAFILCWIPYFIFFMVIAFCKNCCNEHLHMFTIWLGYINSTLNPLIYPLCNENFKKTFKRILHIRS
Method: as §1, §2

Dopamine D2, sequence (P14416 whole entry): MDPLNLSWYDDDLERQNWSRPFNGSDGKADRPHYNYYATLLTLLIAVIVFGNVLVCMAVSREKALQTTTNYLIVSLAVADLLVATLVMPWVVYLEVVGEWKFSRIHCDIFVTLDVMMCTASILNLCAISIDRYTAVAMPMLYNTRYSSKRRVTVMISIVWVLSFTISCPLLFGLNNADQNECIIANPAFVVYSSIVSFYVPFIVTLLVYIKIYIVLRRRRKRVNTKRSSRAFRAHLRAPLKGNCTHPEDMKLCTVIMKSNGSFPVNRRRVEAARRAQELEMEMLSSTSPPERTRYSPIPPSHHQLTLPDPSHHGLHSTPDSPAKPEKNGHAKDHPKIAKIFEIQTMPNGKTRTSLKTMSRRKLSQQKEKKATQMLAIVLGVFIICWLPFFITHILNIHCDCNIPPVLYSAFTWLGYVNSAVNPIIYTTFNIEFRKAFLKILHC

Question: For `COc1ccc2c(c1)N(C[C@H](C)CN(C)C)c1ccccc1S2` [LMP, Levomepromazine], which Ki (Dopamine D2) is on record?
Answer: 0.008 µM

Question: And the Ki (Muscarinic M1)?
Answer: 0.043 µM

Question: And the Ki (Serotonin 5-HT2B)?
Answer: 0.019 µM

Question: And the Ki (Adrenergic α2B)?
Answer: 0.025 µM

Question: What about the Ki (Muscarinic M2) of the same compound?
Answer: 0.263 µM

Question: What about the Ki (Muscarinic M5) of the same compound?
Answer: 0.061 µM

Question: What about the Ki (Serotonin 5-HT6) of the same compound?
Answer: 0.082 µM

Question: And the Ki (Serotonin 5-HT5A)?
Answer: 0.136 µM

Question: And the Ki (Histamine H1)?
Answer: 0.002 µM

Question: For `CNCC(C)CN1c2ccccc2Sc2ccc(OC)cc21` (stereo not drawn) [NDM LMP, R(+) 2-methoxy-10-2-methyl-3-monomethylaminopropyl phenothiazine], which Ki (Dopamine D2) is on record?
Answer: 0.017 µM

Question: And the Ki (Muscarinic M1)?
Answer: 0.054 µM

Question: And the Ki (Serotonin 5-HT2B)?
Answer: 0.027 µM

Question: And the Ki (Adrenergic α2B)?
Answer: 0.048 µM

Question: What about the Ki (Muscarinic M2) of the same compound?
Answer: 0.325 µM

Question: What about the Ki (Muscarinic M5) of the same compound?
Answer: 0.06 µM

Question: What about the Ki (Serotonin 5-HT6) of the same compound?
Answer: 0.098 µM

Question: And the Ki (Serotonin 5-HT5A)?
Answer: 0.152 µM

Question: And the “Relative Affinity” value (Histamine H1)?
Answer: LMP = NDM LMP = sulfoxide

Question: And the Ki (Histamine H1)?
Answer: 0.0021 µM

Question: How did the Ki (Dopamine D2) turn out when `COc1ccc2c(c1)N(C[C@H](C)CN(C)C)c1ccccc1[S+]2[O-]` (some centres unmarked) [Sulfoxide, levomepromazine sulfoxide] was run?
Answer: > 10 µM

Question: What about the Ki (Muscarinic M1) of the same compound?
Answer: 0.726 µM

Question: And the Ki (Serotonin 5-HT2B)?
Answer: > 10 µM

Question: And the Ki (Adrenergic α2B)?
Answer: > 10 µM

Question: And the Ki (Muscarinic M2)?
Answer: 1.29 µM

Question: And the Ki (Muscarinic M5)?
Answer: 0.481 µM

Question: What about the Ki (Serotonin 5-HT6) of the same compound?
Answer: > 10 µM

Question: What about the Ki (Serotonin 5-HT5A) of the same compound?
Answer: > 10 µM

Question: What about the “Relative Affinity” value (Histamine H1) of the same compound?
Answer: LMP = NDM LMP = sulfoxide

Question: And the Ki (Histamine H1)?
Answer: 0.0061 µM
